# From ChEMBL document CHEMBL4610012, “Identification of vibsanin A analog as a novel HSP90 inhibitor” (Bioorg Med Chem, 2020)
# Calls of active or inactive are those of the source. No cut-off for these calls is given here.
# Experiments:
# [1] = test system: MCF7; experiment: Effect on HSP90 level in human MCF7 cells at 10 uM incubated for 24 hrs by immunoblotting assay (reference value: 1); assay type: ADME, cell-based; conditions: mcf7, 24 h
# [2] = test system: MCF7; experiment: Effect on HER2 mRNA expression in human MCF7 cells at 10 uM incubated for 24 hrs by qRT-PCR analysis; assay type: functional, cell-based
# [3] = target: T1, Serine/threonine-protein kinase AKT (Homo sapiens) (UniProt P31751+Q9Y243+P31749); experiment: Inhibition of Akt signaling pathway in human HT1080 cells assessed as fold change in phosphorylated 70S6K level at 10 uM incubated for 24 hrs by immunoblot assay (reference value: 1); assay type: cell-based; conditions: HT-1080
# T1 sequence (P31749 whole entry, looked up): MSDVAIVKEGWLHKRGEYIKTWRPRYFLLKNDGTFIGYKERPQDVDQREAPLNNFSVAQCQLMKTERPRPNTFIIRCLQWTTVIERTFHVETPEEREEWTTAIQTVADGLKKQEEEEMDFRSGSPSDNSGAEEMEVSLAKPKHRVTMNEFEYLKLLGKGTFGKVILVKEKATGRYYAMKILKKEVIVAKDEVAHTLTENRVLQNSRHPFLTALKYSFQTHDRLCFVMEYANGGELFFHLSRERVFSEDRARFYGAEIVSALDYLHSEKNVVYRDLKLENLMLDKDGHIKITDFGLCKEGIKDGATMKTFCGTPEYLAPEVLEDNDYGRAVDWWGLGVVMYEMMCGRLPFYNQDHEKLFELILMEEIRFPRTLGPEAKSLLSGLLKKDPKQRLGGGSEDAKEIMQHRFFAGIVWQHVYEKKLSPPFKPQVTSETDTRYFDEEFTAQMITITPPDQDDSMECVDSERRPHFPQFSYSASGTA
# T1 sequence (P31751 whole entry, looked up): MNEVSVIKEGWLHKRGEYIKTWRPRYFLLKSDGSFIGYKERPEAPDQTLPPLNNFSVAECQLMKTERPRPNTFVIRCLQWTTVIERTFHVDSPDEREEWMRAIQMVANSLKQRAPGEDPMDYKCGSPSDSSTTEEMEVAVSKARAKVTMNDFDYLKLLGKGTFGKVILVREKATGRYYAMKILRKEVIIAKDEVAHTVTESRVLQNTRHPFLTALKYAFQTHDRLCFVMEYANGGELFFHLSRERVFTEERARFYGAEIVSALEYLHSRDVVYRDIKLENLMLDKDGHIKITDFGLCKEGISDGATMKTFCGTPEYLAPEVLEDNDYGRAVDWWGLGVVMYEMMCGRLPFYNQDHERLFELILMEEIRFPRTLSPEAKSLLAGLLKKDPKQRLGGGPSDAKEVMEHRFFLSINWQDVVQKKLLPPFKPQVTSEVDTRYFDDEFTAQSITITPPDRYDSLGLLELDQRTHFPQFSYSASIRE
# T1 sequence (Q9Y243 whole entry, looked up): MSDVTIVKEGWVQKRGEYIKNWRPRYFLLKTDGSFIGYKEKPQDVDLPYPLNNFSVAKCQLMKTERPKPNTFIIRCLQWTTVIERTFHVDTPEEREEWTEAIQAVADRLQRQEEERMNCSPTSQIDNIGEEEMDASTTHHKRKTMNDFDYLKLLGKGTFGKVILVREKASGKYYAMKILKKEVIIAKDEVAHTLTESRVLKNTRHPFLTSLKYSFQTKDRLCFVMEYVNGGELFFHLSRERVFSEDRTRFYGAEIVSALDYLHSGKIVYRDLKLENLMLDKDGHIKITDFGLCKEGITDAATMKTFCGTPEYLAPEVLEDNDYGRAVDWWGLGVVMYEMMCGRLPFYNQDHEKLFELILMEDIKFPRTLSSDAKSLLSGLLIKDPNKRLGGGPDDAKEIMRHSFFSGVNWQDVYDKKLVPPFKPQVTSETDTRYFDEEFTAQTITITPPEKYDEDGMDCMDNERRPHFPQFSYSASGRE
# [4] = test system: MCF7; experiment: Antiproliferative activity against human MCF7 cells assessed as reduction in cell viability incubated for 72 hrs by MTT assay; assay type: functional, cell-based; conditions: MCF7, 72 h
# [5] = test system: A-431; experiment: Antiproliferative activity against human A431 cells assessed as reduction in cell viability incubated for 72 hrs by MTT assay; assay type: functional, cell-based; conditions: A-431, 72 h
# [6] = test system: HT-1080; experiment: Effect on Akt level in human HT1080 cells assessed as Akt level at 10 uM incubated for 24 hrs by immunoblot assay (reference value: 1); assay type: cell-based; conditions: ht-1080, 24 h
# [7] = test system: HT-29; experiment: Antiproliferative activity against human HT-29 cells assessed as reduction in cell viability incubated for 72 hrs by MTT assay; assay type: functional, cell-based; conditions: HT-29, 72 h
# [8] = test system: HT-1080; experiment: Antiproliferative activity against human HT1080 cells assessed as reduction in cell viability incubated for 72 hrs by MTT assay; assay type: functional, cell-based; conditions: HT-1080, 72 h
# [9] = target: Receptor tyrosine-protein kinase erbB-2 (Homo sapiens) (UniProt P04626); experiment: Induction of HER2 destabilization in human MCF7 cells assessed as half life at 10 uM measured up to 24 hrs by immunoblotting assay (Rvb > 24 hrs); assay type: cell-based
# Receptor tyrosine-protein kinase erbB-2 (Homo sapiens), sequence (P04626 whole entry): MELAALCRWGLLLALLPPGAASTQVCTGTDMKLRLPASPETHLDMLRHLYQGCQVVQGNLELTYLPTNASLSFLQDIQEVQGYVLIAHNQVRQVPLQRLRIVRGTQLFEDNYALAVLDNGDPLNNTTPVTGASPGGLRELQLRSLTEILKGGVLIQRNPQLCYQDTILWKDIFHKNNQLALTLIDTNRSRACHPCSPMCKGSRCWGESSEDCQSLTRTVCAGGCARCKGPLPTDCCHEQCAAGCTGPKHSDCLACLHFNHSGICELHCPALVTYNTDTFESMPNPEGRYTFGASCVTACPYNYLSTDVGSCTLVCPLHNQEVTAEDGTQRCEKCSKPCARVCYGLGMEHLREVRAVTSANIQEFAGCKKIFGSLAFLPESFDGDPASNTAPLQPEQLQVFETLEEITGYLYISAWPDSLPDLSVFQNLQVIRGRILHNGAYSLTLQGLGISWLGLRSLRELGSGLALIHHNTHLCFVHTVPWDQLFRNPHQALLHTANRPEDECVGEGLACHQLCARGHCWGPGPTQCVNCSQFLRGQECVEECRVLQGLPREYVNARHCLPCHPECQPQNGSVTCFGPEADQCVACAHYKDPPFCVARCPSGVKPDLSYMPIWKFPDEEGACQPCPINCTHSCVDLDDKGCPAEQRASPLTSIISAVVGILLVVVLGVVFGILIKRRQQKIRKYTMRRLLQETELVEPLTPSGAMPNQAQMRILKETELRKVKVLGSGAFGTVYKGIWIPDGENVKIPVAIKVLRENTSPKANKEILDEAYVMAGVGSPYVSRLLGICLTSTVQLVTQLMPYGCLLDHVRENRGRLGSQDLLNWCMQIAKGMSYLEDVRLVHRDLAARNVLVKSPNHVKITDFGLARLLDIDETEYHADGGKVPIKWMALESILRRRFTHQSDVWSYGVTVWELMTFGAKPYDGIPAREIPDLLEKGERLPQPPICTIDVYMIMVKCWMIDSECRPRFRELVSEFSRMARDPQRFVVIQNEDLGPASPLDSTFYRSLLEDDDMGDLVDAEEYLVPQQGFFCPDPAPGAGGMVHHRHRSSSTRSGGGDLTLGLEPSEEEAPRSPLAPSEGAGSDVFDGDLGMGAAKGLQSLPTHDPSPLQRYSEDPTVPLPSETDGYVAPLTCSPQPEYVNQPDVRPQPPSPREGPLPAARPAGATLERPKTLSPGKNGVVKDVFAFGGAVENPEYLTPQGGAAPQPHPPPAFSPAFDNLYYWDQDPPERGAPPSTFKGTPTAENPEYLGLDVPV
# [10] = target: T1, Serine/threonine-protein kinase AKT (Homo sapiens); experiment: Inhibition of Akt signaling pathway in human HT1080 cells assessed as fold change in phosphorylated Akt level at 0.01 uM incubated for 12 hrs by immunoblot assay (reference value: 1); assay type: cell-based; conditions: HT-1080
# [11] = target: T1, Serine/threonine-protein kinase AKT (Homo sapiens); experiment: Inhibition of Akt signaling pathway in human HT1080 cells assessed as fold change in phosphorylated Akt level at 1 uM incubated for 12 hrs by immunoblot assay (reference value: 1); assay type: cell-based; conditions: HT-1080
# [12] = target: T1, Serine/threonine-protein kinase AKT (Homo sapiens); experiment: Inhibition of Akt signaling pathway in human HT1080 cells assessed as fold change in phosphorylated Akt level at 10 uM incubated for 24 hrs by immunoblot assay (reference value: 1); assay type: cell-based; conditions: HT-1080
# [13] = test system: HT-1080; experiment: Induction of vacuole formation in human HT1080 cells at 10 uM incubated for 24 hrs; assay type: functional, cell-based
# [14] = test system: PC-3; experiment: Antiproliferative activity against human PC3 cells assessed as reduction in cell viability incubated for 72 hrs by MTT assay; assay type: functional, cell-based; conditions: PC-3, 72 h
# [15] = test system: A549; experiment: Antiproliferative activity against human A549 cells assessed as reduction in cell viability incubated for 72 hrs by MTT assay; assay type: functional, cell-based; conditions: A549, 72 h
# [16] = target: T1, Serine/threonine-protein kinase AKT (Homo sapiens); experiment: Inhibition of Akt signaling pathway in human HT1080 cells assessed as reduction in phosphorylated Akt level incubated for 12 hrs by immunoblot assay; assay type: cell-based; conditions: HT-1080
# [17] = test system: NEC8; experiment: Antiproliferative activity against human NEC8 cells assessed as reduction in cell viability incubated for 72 hrs by MTT assay; assay type: functional, cell-based; conditions: NEC8, 72 h
# [18] = target: T1, Serine/threonine-protein kinase AKT (Homo sapiens); experiment: Inhibition of Akt signaling pathway in human HT1080 cells assessed as fold change in phosphorylated Akt level at 0.1 uM incubated for 12 hrs by immunoblot assay (reference value: 1); assay type: cell-based; conditions: HT-1080
# [19] = target: T1, Serine/threonine-protein kinase AKT (Homo sapiens); experiment: Inhibition of Akt signaling pathway in human HT1080 cells assessed as fold change in phosphorylated Akt level at 10 uM incubated for 12 hrs by immunoblot assay (reference value: 1); assay type: cell-based; conditions: HT-1080
# [20] = Antiproliferative activity against human ES2 cells assessed as reduction in cell viability incubated for 72 hrs by MTT assay; assay type: functional, cell-based; conditions: ES-2, 72 h
# [21] = target: Luciferin 4-monooxygenase (Photinus pyralis) (UniProt P08659); experiment: Effect on firefly luciferase activity at 100 uM incubated for 60 mins by luciferase assay system
# Luciferin 4-monooxygenase (Photinus pyralis), sequence (P08659 whole entry): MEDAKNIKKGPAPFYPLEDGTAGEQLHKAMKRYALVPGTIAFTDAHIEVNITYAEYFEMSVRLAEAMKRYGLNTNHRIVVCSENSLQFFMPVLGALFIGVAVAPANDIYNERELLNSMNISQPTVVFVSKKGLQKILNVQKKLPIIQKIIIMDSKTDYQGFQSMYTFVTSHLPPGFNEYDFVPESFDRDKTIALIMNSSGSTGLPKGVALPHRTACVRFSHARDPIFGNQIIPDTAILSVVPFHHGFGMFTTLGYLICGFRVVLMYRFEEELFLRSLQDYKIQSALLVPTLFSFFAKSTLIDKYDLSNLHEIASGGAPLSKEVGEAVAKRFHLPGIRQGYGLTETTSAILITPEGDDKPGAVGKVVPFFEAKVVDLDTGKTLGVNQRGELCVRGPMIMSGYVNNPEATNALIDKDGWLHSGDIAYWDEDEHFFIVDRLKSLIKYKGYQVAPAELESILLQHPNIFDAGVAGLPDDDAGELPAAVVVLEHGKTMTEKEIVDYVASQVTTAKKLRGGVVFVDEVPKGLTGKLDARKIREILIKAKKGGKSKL
# [22] = test system: SK-MEL-28; experiment: Antiproliferative activity against human SK-MEL-28 cells assessed as reduction in cell viability incubated for 72 hrs by MTT assay; assay type: functional, cell-based; conditions: SK-MEL-28, 72 h
# [23] = test system: PANC-1; experiment: Antiproliferative activity against human PANC1 cells assessed as reduction in cell viability incubated for 72 hrs by MTT assay; assay type: functional, cell-based; conditions: PANC-1, 72 h
# [24] = target: Heat shock protein HSP90 (Homo sapiens) (UniProt P07900+P08238); experiment: Inhibition of HSP90 chaperone activity in human HeLa cells assessed as reduction in denatured luciferase refolding at 100 uM incubated for 60 mins by luciferase refolding assay; assay type: cell-based
SMILES,fold change (FC) [1],fold change (FC) [3],IC50 [4],IC50 [5],fold change (FC) [6],IC50 [7],IC50 [8],fold change (FC) [12],IC50 [14],IC50 [15],IC50 [22],IC50 [23],Activity [2],Activity [13],IC50 [17],IC50 [20],further results
COC1=C2C[C@@H](C)C[C@H](OC)[C@H](O)[C@@H](C)/C=C(\C)[C@H](OC(N)=O)[C@@H](OC)/C=C\C=C(/C)C(=O)NC(=CC1=O)C2=O [GELDANAMYCIN],1.01,,,,,,,,,,,,inactive,,,,
C=C(I)CC[C@H]1O[C@@]1(C)[C@@H](/C=C/[C@](C)(CC=O)CCC=C(C)C)OC(=O)C=C(C)C,,1.15,> 20 µM,20 µM,0.92,> 20 µM,18 µM,0.91,> 20 µM,> 20 µM,> 20 µM,5.1 µM,,inactive,11 µM,> 20 µM,
CC(C)=CCC[C@]1(C)/C=C/[C@@H](OC(=O)C=C(C)C)[C@]2(C)O[C@@H]2CC/C(C=O)=C\C1,,1.11,12 µM,13 µM,0.85,7.8 µM,18 µM,1.05,> 20 µM,11 µM,> 20 µM,2.7 µM,,inactive,12 µM,7.5 µM,
CC(C)=CCC[C@]1(C)/C=C/[C@@H](OC(=O)C=C(C)C)[C@]2(C)O[C@@H]2CC/C(CO)=C\C1,,1.2,15 µM,16 µM,1.08,6.8 µM,> 20 µM,0.98,> 20 µM,8.3 µM,> 20 µM,0.025 µM,,inactive,8.4 µM,2.9 µM,

# Continued, in another order:
fold change (FC) [1],fold change (FC) [3],IC50 [4],IC50 [5],fold change (FC) [6],IC50 [7],IC50 [8],fold change (FC) [12],IC50 [14],IC50 [15],IC50 [22],IC50 [23],SMILES,Activity [2],Activity [13],IC50 [17],IC50 [20],further results
0.98,0.08,3.5 µM,0.89 µM,0.8,2 µM,1.2 µM,0.11,4.3 µM,4.4 µM,0.97 µM,3.5 µM,C=C1CC[C@H]2O[C@@]2(C)[C@H](OC(=O)C=C(C)C)/C=C/[C@@](C)(CCC=C(C)C)CC1=O,inactive,Active,3 µM,4.3 µM,T1/2 [9]: 15 h; fold change (FC) [10]: 0.99; fold change (FC) [11]: 0.63; inhibition [16]: Dose-dependent effect; fold change (FC) [18]: 0.8; fold change (FC) [19]: 0.38; Activity [21]: inactive; inhibition [24]: Active
,1.1,> 20 µM,> 20 µM,0.98,> 20 µM,> 20 µM,0.95,> 20 µM,> 20 µM,> 20 µM,> 20 µM,C=C1CC[C@H]2O[C@@]2(C)[C@H](OC(=O)C=C(C)C)/C=C/[C@@](C)(CCC=C(C)C)C[C@H]1O,,inactive,11 µM,> 20 µM,
